Source: US12077503B2, “Substituted cyclic amides and their use as herbicides” (FMC CORPORATION, priority 2015, dated 2024)
Like-named read-outs stand apart in the source and are kept apart here.

Columns and labels:
Assay type in all cases: in vivo
[1] = tested on: ducksalad (Heteranthera limosa); experiment: Test B flooded paddy test; conditions: Heteranthera limosa, Flood, 250 g ai/ha
Procedure, shortened: (§1)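 2-leaf plants; pots flooded 3 cm over soil; cpd added to paddy water; depth held; greenhouse 13–15 d; visual rating vs controls, 0 = no effect, 100 = complete control.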

[2] = tested on: barnyardgrass (Echinochloa crus-galli); experiment: Test B flooded paddy test; conditions: Echinochloa crus-galli, Flood, 250 g ai/ha
Procedure, shortened: as §1

[3] = tested on: sedge, umbrella (small-flower umbrella sedge, Cyperus difformis); experiment: Test B flooded paddy test; conditions: Cyperus difformis, Flood, 250 g ai/ha
Procedure, shortened: as §1

[4] = tested on: rice (Oryra sativa); experiment: Test B flooded paddy test; conditions: Oryza sativa, Flood, 250 g ai/ha
Procedure, shortened: as §1

[5] = tested on: Kochia (Kochia scoparia); experiment: Test A postemergence; conditions: Bassia scoparia, post-emergence, 240 h; for pest or weed control at 125 g/ha: 125 g ai/ha; for pest or weed control at 500 g/ha: 500 g ai/ha, visual injury, approx. 10 d
Procedure, shortened: (§2)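 In a loam soil and sand blend, planted seeds got a preemergence directed soil spray, and young plants at the one- to two-leaf stage, 2–10 cm high, got a postemergence application; ~10 d greenhouse hold; injury rated visually, 0 = none, 100 = complete control.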

[6] = tested on: blackgrass (Alopecurus myosuroides); experiment: Test A postemergence; conditions: Alopecurus myosuroides, post-emergence, 240 h; for pest or weed control at 125 g/ha: 125 g ai/ha; for pest or weed control at 500 g/ha: 500 g ai/ha, visual injury, approx. 10 d
Procedure, shortened: as §2

[7] = tested on: ryegrass, Italian (Italian ryegrass, Lolium multiflorum); experiment: Test A postemergence; conditions: Lolium multiflorum, post-emergence, 240 h; for pest or weed control at 125 g/ha: 125 g ai/ha; for pest or weed control at 500 g/ha: 500 g ai/ha, visual injury, approx. 10 d
Procedure, shortened: as §2

[8] = tested on: giant foxtail (Setaria faberii); experiment: Test A postemergence; conditions: Setaria faberi, post-emergence, 240 h; for pest or weed control at 125 g/ha: 125 g ai/ha; for pest or weed control at 500 g/ha: 500 g ai/ha, visual injury, approx. 10 d
Procedure, shortened: as §2

[9] = tested on: pigweed (Amaranthus retroflexus); experiment: Test A preemergence; conditions: Amaranthus retroflexus, pre-emergence, 240 h, read-out: Plant response rating, Pigweed; for pest or weed control at 500 g/ha: 500 g ai/ha; for pest or weed control at 125 g/ha: 125 g ai/ha
[10] = tested on: ragweed (common ragweed, Ambrosia elatior); experiment: Test A preemergence; conditions: Ambrosia artemisiifolia, pre-emergence, 240 h, read-out: Plant response rating, Ragweed; for pest or weed control at 500 g/ha: 500 g ai/ha; for pest or weed control at 125 g/ha: 125 g ai/ha
Procedure, shortened: as §2

[11] = tested on: Kochia (Kochia scoparia); experiment: Test A preemergence; conditions: Bassia scoparia, pre-emergence, 240 h, read-out: Plant response rating, Kochia; for pest or weed control at 500 g/ha: 500 g ai/ha; for pest or weed control at 125 g/ha: 125 g ai/ha
Procedure, shortened: as §2

[12] = tested on: ryegrass, Italian (Italian ryegrass, Lolium multiflorum); experiment: Test A preemergence; conditions: Lolium multiflorum, pre-emergence, 240 h, read-out: Plant response rating, Ryegrass, Italian; for pest or weed control at 500 g/ha: 500 g ai/ha; for pest or weed control at 125 g/ha: 125 g ai/ha
Procedure, shortened: as §2

[13] = tested on: giant foxtail (Setaria faberii); experiment: Test A preemergence; conditions: Setaria faberi, pre-emergence, 240 h, read-out: Plant response rating, Foxtail, Giant; for pest or weed control at 500 g/ha: 500 g ai/ha; for pest or weed control at 125 g/ha: 125 g ai/ha
Procedure, shortened: as §2

[14] = tested on: barnyardgrass (Echinochloa crus-galli); experiment: Test A preemergence; conditions: Echinochloa crus-galli, pre-emergence, 240 h, read-out: Plant response rating, Barnyardgrass; for pest or weed control at 500 g/ha: 500 g ai/ha; for pest or weed control at 125 g/ha: 125 g ai/ha
Procedure, shortened: as §2

[15] = 360 h, visually evaluated after 13 to 15 d, read-out: Plant response rating, Ducksalad (0 to 100 scale where 0 is no effect and 100 is complete control)
[16] = 360 h, visually evaluated after 13 to 15 d, read-out: Plant response rating, Barnyardgrass (0 to 100 scale where 0 is no effect and 100 is complete control)
[17] = 360 h, visually evaluated after 13 to 15 d, read-out: Plant response rating, Sedge, Umbrella (0 to 100 scale where 0 is no effect and 100 is complete control)
[18] = 360 h, visually evaluated after 13 to 15 d, read-out: Plant response rating, Rice (0 to 100 scale where 0 is no effect and 100 is complete control)
[19] = Postemergence, visual rating about 10 d after treatment, read-out: Kochia plant response rating (0 to 100 scale)
[20] = Postemergence, 0 to 100 scale (0 no effect, 100 complete control), read-out: Plant response rating, Kochia
[21] = Postemergence, visual rating about 10 d after treatment, read-out: Blackgrass plant response rating (0 to 100 scale)
[22] = Postemergence, 0 to 100 scale (0 no effect, 100 complete control), read-out: Plant response rating, Blackgrass
[23] = Postemergence, visual rating about 10 d after treatment, read-out: Ryegrass, Italian plant response rating (0 to 100 scale)
[24] = Postemergence, 0 to 100 scale (0 no effect, 100 complete control), read-out: Plant response rating, Ryegrass, Italian
[25] = Postemergence, visual rating about 10 d after treatment, read-out: Foxtail, Giant plant response rating (0 to 100 scale)
[26] = Postemergence, 0 to 100 scale (0 no effect, 100 complete control), read-out: Plant response rating, Foxtail, Giant
[27] = preemergence, 0 to 100 scale (0 no effect, 100 complete control)
[28] = Preemergence, 0 to 100 scale (0 no effect, 100 complete control)
[29] = preemergence, visual rating after approx. 10 d, 0 to 100 scale where 0 is no effect and 100 is complete control
[30] = preemergence, 0 to 100 scale, 0 = no effect, 100 = complete control

Compound	pest or weed control at 250 g/ha [1, 15] [%]	pest or weed control at 250 g/ha [2, 16] [%]	pest or weed control at 250 g/ha [3, 17] [%]	pest or weed control at 250 g/ha [4, 18] [%]	pest or weed control at 125 g/ha [5, 19] [%]	pest or weed control at 500 g/ha [5, 20] [%]	pest or weed control at 125 g/ha [6, 21] [%]	pest or weed control at 500 g/ha [6, 22] [%]	pest or weed control at 125 g/ha [7, 23] [%]	pest or weed control at 500 g/ha [7, 24] [%]	pest or weed control at 125 g/ha [8, 25] [%]	pest or weed control at 500 g/ha [8, 26] [%]	pest or weed control at 500 g/ha [9, 27] [%]	pest or weed control at 125 g/ha [9, 28] [%]	pest or weed control at 500 g/ha [10, 27] [%]	pest or weed control at 125 g/ha [10, 28] [%]	pest or weed control at 500 g/ha [11, 27] [%]	pest or weed control at 125 g/ha [11, 28] [%]	pest or weed control at 500 g/ha [12, 27] [%]	pest or weed control at 125 g/ha [12, 28] [%]	other results
CO[C@]1(C(=O)Nc2cccc(F)c2F)C(=O)N(C)C[C@@H]1c1ccc(C(F)(F)F)cc1 (racemic) [Compound 1334]	90	0	0	0	0	0	0	0	0	20	0	50	30	20	30	0	20	0	20	0	pest or weed control at 500 g/ha [13, 27]: 80%; pest or weed control at 125 g/ha [13, 28]: 40%; pest or weed control at 500 g/ha [14, 27]: 80%; pest or weed control at 125 g/ha [14, 28]: 20%
O=C1NC[C@H](c2cc(C(F)(F)F)ccn2)[C@H]1C(=O)Nc1cccc(F)c1F (racemic) [Compound 1376]	70	40	0	0	0	20	20	70	0	30	80	80	0	0	0	0	0	0	70	20	pest or weed control at 500 g/ha [13, 27]: 100%; pest or weed control at 125 g/ha [13, 28]: 90%; pest or weed control at 500 g/ha [14, 27]: 100%; pest or weed control at 125 g/ha [14, 28]: 90%
COc1ccc([C@H]2CNC(=O)[C@@H]2C(=O)Nc2ccccc2S(C)(=O)=O)cc1F [Compound 721]	–	–	–	–	–	–	–	–	–	–	–	–	–	–	–	–	–	–	–	–	pest or weed control at 250 g/ha ([1]; scale of 0 to 100 where 0 is no effect and 100 is complete control, read-out: Ducksalad plant response rating): 100%; pest or weed control at 250 g/ha ([2]; scale of 0 to 100 where 0 is no effect and 100 is complete control, read-out: Barnyardgrass plant response rating): 0%; pest or weed control at 250 g/ha ([3]; scale of 0 to 100 where 0 is no effect and 100 is complete control, read-out: Sedge, Umbrella plant response rating): 0%; pest or weed control at 250 g/ha ([4]; scale of 0 to 100 where 0 is no effect and 100 is complete control, read-out: Rice plant response rating): 0%; pest or weed control at 125 g/ha ([5]; postemergence, visual injury after approximately 10 d, 0 to 100 scale (0 no effect, 100 complete control), read-out: Plant response rating, Kochia): 0%; pest or weed control at 125 g/ha ([6]; postemergence, visual injury after approximately 10 d, 0 to 100 scale (0 no effect, 100 complete control), read-out: Plant response rating, Blackgrass): 0%; pest or weed control at 125 g/ha ([7]; postemergence, visual injury after approximately 10 d, 0 to 100 scale (0 no effect, 100 complete control), read-out: Plant response rating, Ryegrass, Italian): 0%; pest or weed control at 125 g/ha ([8]; postemergence, visual injury after approximately 10 d, 0 to 100 scale (0 no effect, 100 complete control), read-out: Plant response rating, Foxtail, Giant): 0%; pest or weed control at 125 g/ha [9, 29]: 0%; pest or weed control at 500 g/ha [9, 30]: 0%; pest or weed control at 125 g/ha [10, 29]: 0%; pest or weed control at 500 g/ha [10, 30]: 50%; pest or weed control at 125 g/ha [11, 29]: 0%; pest or weed control at 500 g/ha [11, 30]: 0%; pest or weed control at 125 g/ha [12, 29]: 0%; pest or weed control at 500 g/ha [12, 30]: 20%; pest or weed control at 125 g/ha [13, 29]: 30%; pest or weed control at 500 g/ha [13, 30]: 90%; pest or weed control at 125 g/ha [14, 29]: 30%; pest or weed control at 500 g/ha [14, 30]: 80%
